Source: patent publication US4546107A, “1,4-Methano-2-benzazepine derivatives useful as cerebal dysfunction-improving drugs, anti-convulsant, anti-epileptic or anti-anxiety drugs” (priority 1982, dated 1985)

How the values were obtained:
picrotoxin = assay: Anti-picrotoxin action (picrotoxin-induced lethality in mice); format: in vivo, male dd mice; conditions: for ED50: Mus musculus, po, 0.5 h, read-out: Anti-picrotoxin-lethal action, ED50
Description: 1. Anti-picrotoxin Action
Groups each of 7-14 male dd mice were used. A test compound was orally administered and 60 minutes thereafter, picrotoxin (5 mg/kg) was administered subcutaneously. The 50% anti-lethal dose (ED50) was calculated from the servival rate within 30 minutes.

bicuculline = assay: Anti-bicuculline action (bicuculline-induced tonic-extensile convulsions in mice); format: in vivo, male dd mice; conditions: for ED50: Mus musculus, po, 5 min, read-out: Anti-bicuculline-convulsive action, ED50
Description: 2. Anti-bicuculline Action
Groups each of 4-14 male dd mice were used. Each test compound was administered orally and 60 minutes thereafter, bicuculline (0.6 mg/kg) was administered intravenously. The dose (ED50) required for 50% suppression of the occurrence of tonic-extensile convulsions within 5 minutes against the control group was determined.

Structure (SMILES) | ED50 (picrotoxin) | ED50 (bicuculline) | Anti-picrotoxin-lethal action, percent in parentheses (picrotoxin; printed beside ED50 >100 mg/kg, p.o., mice, picrotoxin 5 mg/kg s.c.) | Anti-bicuculline-convulsive action, percent in parentheses (bicuculline; printed beside ED50 >100 mg/kg, p.o., mice, bicuculline 0.6 mg/kg i.v.)
O=C1NC2CC1Cc1ccc(Cl)cc12 (stereo not drawn) [A, 8-chloro-1,4-methano-2,3,4,5-tetrahydro-1H-2-benzazepin-3-one] | 62 mg/kg | 95 mg/kg | – | –
CN1C(=O)C2Cc3ccc(Cl)cc3C1C2 (stereo not drawn) [B, 8-chloro-2-methyl-1,4-methano-2,3,4,5-tetrahydro-1H-2-benzazepin-3-one] | 66 mg/kg | 45 mg/kg | – | –
O=C1NC2CC1Cc1c(Cl)cc(Cl)cc12 (stereo not drawn) [C, 6,8-dichloro-1,4-methano-2,3,4,5-tetrahydro-1H-2-benzazepin-3-one] | 50 mg/kg | 73 mg/kg | – | –
O=C1NC2CC1Cc1ccccc12 (stereo not drawn) [D, 1,4Methano-2,3,4,5-tetrahydro-1H--2benzazepin-3-one] | 1100 mg/kg | > 1000 mg/kg | – | –
COc1ccc2c(c1)C1CC(C2)C(=O)N1C (stereo not drawn) [E, 8Methoxy-2-methyl-1,4-methano-2,3,4,5-tetrahydro-1H--2-benzazepin3-one] | > 100 mg/kg | > 100 mg/kg | 0% | 0%
